# Source: PMC2801581 (Journal of medicinal chemistry, 2009)
# Where two headings read alike, the source gives them in different places.
# Experiments:
# LYP [1] = experiment: Intracellular LYP inhibition in JTAg cells, anti-pLck; format: cell-based, human
# CD45 [2] = target: T1, CD45 (Homo sapiens, UniProt P08575); experiment: CD45 counterscreen; format: biochemical; conditions: read-out: IC50 CD45 (DiFMUP)
# T1 sequence (P08575 653-912 limits assumed): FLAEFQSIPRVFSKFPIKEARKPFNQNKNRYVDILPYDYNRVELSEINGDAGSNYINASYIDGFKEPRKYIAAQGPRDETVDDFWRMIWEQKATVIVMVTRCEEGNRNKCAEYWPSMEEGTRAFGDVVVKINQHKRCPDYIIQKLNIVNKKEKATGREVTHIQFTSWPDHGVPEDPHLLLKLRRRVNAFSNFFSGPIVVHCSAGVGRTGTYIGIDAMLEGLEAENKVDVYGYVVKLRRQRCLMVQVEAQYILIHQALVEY
# CD45 [3] = target: T2, CD45 (Homo sapiens, UniProt P08575); experiment: Intracellular CD45 inhibition in JTAg cells, anti-pLck; format: cell-based
# T2 sequence (P08575 26-1306): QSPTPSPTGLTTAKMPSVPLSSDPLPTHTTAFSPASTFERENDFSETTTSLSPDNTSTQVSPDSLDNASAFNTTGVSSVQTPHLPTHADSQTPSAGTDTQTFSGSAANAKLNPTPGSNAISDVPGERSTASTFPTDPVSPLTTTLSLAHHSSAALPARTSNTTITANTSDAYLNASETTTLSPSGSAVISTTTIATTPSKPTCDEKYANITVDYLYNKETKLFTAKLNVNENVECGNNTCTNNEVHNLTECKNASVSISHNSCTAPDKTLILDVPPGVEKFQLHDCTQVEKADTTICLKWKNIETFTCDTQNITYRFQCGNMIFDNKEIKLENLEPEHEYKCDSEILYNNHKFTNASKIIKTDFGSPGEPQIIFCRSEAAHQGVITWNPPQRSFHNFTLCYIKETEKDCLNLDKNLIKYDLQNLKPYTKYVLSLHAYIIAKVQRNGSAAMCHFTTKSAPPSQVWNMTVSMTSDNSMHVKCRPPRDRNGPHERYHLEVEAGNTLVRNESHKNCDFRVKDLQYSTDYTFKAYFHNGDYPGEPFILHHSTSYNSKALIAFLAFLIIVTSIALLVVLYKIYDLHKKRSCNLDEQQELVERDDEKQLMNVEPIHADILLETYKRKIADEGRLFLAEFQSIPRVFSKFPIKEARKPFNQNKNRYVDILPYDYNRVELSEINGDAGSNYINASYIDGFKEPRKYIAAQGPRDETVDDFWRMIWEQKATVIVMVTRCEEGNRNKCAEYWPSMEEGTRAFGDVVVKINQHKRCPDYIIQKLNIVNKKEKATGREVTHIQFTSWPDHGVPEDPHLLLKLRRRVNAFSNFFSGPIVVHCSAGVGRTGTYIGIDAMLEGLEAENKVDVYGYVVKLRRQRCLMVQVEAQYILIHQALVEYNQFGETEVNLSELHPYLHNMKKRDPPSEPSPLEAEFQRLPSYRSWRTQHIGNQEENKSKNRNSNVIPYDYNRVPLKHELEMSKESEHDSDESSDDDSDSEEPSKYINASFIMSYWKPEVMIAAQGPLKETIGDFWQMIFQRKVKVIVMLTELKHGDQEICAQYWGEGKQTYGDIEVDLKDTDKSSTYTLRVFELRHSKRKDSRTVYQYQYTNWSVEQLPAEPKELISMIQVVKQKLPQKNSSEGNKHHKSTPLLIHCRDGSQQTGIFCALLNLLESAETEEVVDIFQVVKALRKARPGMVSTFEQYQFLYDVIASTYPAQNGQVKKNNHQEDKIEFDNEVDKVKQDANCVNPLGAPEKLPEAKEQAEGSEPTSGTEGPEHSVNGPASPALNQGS
# LYP [4] = target: T3, LYP (Homo sapiens, UniProt Q9Y2R2); experiment: LYP inhibition assay with fluorogenic substrates; format: biochemical; conditions: for IC50: pH 6.5
# T3 sequence (Q9Y2R2 2-309): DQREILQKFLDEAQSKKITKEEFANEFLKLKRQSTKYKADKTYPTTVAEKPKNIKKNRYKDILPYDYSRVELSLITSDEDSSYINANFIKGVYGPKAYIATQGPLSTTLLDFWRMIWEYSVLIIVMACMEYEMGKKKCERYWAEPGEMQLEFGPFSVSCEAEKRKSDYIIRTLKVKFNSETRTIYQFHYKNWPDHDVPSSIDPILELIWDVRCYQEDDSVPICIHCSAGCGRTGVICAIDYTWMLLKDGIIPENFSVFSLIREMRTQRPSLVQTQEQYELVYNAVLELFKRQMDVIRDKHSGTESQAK
# LYP [5] = test system: LYP
# PTP-PEST = target: T4, PTP-PEST (Homo sapiens, UniProt Q05209); experiment: PTP-PEST inhibition assay with fluorogenic substrates; format: biochemical; conditions: pH 6.5
# T4 sequence (Q05209 2-323): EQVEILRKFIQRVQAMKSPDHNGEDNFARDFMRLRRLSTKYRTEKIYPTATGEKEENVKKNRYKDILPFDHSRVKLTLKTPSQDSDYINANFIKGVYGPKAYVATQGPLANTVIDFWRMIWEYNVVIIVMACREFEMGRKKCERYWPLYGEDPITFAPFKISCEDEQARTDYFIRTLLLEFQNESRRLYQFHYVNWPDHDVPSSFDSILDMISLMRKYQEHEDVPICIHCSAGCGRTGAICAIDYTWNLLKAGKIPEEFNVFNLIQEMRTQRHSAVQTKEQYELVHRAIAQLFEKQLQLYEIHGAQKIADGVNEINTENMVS
# CD45 [6] = test system: CD45
# HePTP = target: T5, HePTP (Homo sapiens, UniProt P35236); experiment: HePTP counterscreen; format: biochemical; conditions: read-out: IC50 HePTP (DiFMUP)
# T5 sequence (P35236 65-360): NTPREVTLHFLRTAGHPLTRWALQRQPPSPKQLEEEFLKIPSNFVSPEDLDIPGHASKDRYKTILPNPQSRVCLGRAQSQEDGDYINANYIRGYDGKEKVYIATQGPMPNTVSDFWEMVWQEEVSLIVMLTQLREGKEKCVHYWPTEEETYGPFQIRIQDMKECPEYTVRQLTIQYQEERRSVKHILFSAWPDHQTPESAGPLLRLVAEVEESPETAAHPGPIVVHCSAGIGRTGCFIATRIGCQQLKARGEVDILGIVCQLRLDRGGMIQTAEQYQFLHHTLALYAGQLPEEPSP
compound,measurement,setting,value
"[Cl][Au][PH](c1ccccc1)(c1ccccc1)c1ccccn1 [Compound 17, Diphenyl-2-pyridylphosphine-Au(I)-Cl]",phosphorylation of Lck at Y394 (LYP activity in cells),LYP [1],increase in phosphorylation at Y394
same,IC50,CD45 [2],> 150 µM
same,phosphorylation of Lck at Y505 (CD45 activity in cells),CD45 [3],no change in phosphorylation levels at position Y505
same,LYP versus PTP-PEST inhibition in comparative library screen,LYP [4],more potent inhibitors of LYP than PTP-PEST regardless of the substrate used
same,selectivity for LYP over PTP-PEST in dose-response screens,LYP [4],selective for LYP over the ~ 70% identical PTP-PEST
same,IC50,LYP [4]; read-out: IC50 LYP (DiFMUP),5 ± 0.2 µM
same,IC50,LYP [4]; read-out: IC50 LYP (peptide 1),1.5 ± 0.3 µM
same,LYP activity in primary mouse thymocytes (pLck Tyr394),LYP [5],appears to inhibit LYP activity
same,IC50,PTP-PEST; read-out: IC50 PEST (DiFMUP),76 ± 3 µM
same,IC50,PTP-PEST; read-out: IC50 PEST (peptide 1),43 ± 3 µM
same,CD45 activity in primary mouse thymocytes (pLck Tyr505),CD45 [6],not CD45 activity
same,IC50,HePTP,35 ± 2 µM
